Assay results taken from patent publication US10413583B2, “Synthetic substrates for enzymes that catalyze reactions of modified cysteines and related methods” (The University of Chicago, priority 2016, dated 2019).

Key:
HEPG2 cells [1] = test: Epifluorescent imaging of DPP-5 and diacetyl rhodol in HepG2 cells (PalmB, ML348, ML349, palmitate); format: cell-based, human; settings: 1 mM palmitate for 6 hours post-starvation
Procedure: 250,000 HEK293T cells/well, 120,000 HeLa cells/well, or 100,000 HepG2 cells/well were plated in 700 μL DMEM glutamax (10% FBS+1% P/S) into 4-well chambered imaging dish (D35C4-20-1.5-N, Cellvis, Mountain View, Calif., United States of America), which were precoated with 5 μg Poly-D-lysine (30-70 KDa, Alfa Aesar, Haverhill, Mass., United States of America) for 2 h. After 20-24 h, the media was replaced by 1 μM Hoechst 33342 and DMSO/5 μM PalmB in 400 μL DMEM glutamax. After 30 min of incubation at 37° C., the cells were washed with 400 μL of Live Cell Imaging Solution and replaced by 1 μM DPP-5 with DMSO or 5 μM of PalmB in Live Cell Imaging Solution. After 20 min of incubation at 37° C., images were obtained on an inverted epifluorescence microscope (Olympus IX83; Olympus Corporation, Tokyo, Japan) attached with EMCCD camera (Photometrics EVOLVE™ Delta, Photometrics, Tucson, Ariz., United States of America) with 40× oil objective (N/A 1.3) for DPP-5 (excitation filter 500/20, dichroic chroma 89007, emission filter 535/30), Hoechst 33342 (excitation filter 402/15, emission filter 455/50, dichroic chroma 89013), and brightfield. Analyses were performed in ImageJ. For data analysis, the average fluorescence intensity per image in each experimental condition was obtained by selecting ROI in Brightfield and applying that to the corresponding DPP-5 image, average background fluorescence intensity was subtracted and data was normalized to the average fluorescence intensity of the DMSO control. Each experiment was repeated in at least two biological replicates with identical results.
16,000 HepG2 cells/well were plated in 100 μL DMEM glutamax (10% fetal bovine serum (FBS)) into 4 wells of a 96-well chambered imaging dish (P96-1-N, Cellvis, Mountain View Calif., United States of America), which were precoated with 0.7 μg Poly-D-lysine (30-70 KDa, Alfa Aesar, Haverhill, Mass., United States of America) for 2 hrs. After 24 h, cells were washed with Live Cell Imaging Solution and replaced by 1 μM Hoechst 33342 and DMSO/10 μM ML348/10 μM ML349/10 μM of both ML348 and ML349 in 100 μL DMEM glutamax. After 30 min of incubation at 37° C., the cells were washed with 100 μL of Live Cell Imaging Solution and replaced by 1 μM DPP-5 in Live Cell Imaging Solution. After 20 min of incubation at 37° C., images were obtained on an inverted epifluorescence microscope (Leica DMi8; Leica Microsystems, Wetzlar, Germany) equipped with a camera (Hamamatsu Orca-Flash 4.0; Hamamatsu, Hamamatsu City, Japan) with 63× oil objective (N/A 1.4) and light source (Sutter Lamda XL, 300 W Xenon; Sutter Instrument, Novato, Calif., United States of America) for DPP-5 (YFP filter cube 1525306), Hoechst 33342 (DAPI filter cube), and brightfield using Leica LASX software (Leica Microsystems, Wetzlar, Germany). Analyses were performed in ImageJ. Each experiment was repeated in three biological replicates and 8-12 images were considered for plotting bar graphs for quantification. For detailed data analysis, the average fluorescence intensity per image in each experimental condition was obtained by selecting ROI in Brightfield and applying that to the corresponding DPP-5 image, average background fluorescence intensity was subtracted and data was normalized to the average fluorescence intensity of the control experiment. […] 250,000 HEK293T cells/well were plated in 700 μL DMEM glutamax (10% FBS+1% P/S) into three wells of a 4-well chambered imaging dish (D35C4-20-1.5-N, Cellvis, Mountain View, Calif., United States of America), which were precoated with 5 μg Poly-Dlysine (30-70 KDa, Alfa Aesar, Haverhill, Mass., United States of America) for 2 h. After 18 h, the media was replaced by 1 μM Hoechst 33342 in 400 μL DMEM glutamax. […] After 20 min of incubation at 37° C., images were obtained and analyzed as described above. […]

HEPG2 cells [2] = test: Fluorescence imaging of RDP-1 with HEPG2 cells (PalmB, palmitate); format: cell-based, human; settings: palmitate pretreatment for 6 hours
Procedure: HEPG2 were plated with […] of DMEM (Gibco, Gaithersburg, Md., United States of America; High Glucose, Glutamax, 10% FBS) a four well chambered imaging dish (D35C4-20-1.5-N, Cellvis, Mountain View, Calif., United States of America) which were precoated with 4 μg Poly-D-lysine (30-70 KDa, Alfa Aesar, Haverhill, Mass., United States of America) for 2 h at room temperature or overnight at 4° C. and grown to ca. 80% confluence prior to imaging. 30 min before the addition of the RDP, the cell culture media was removed and cells were washed with 500 μL of serum-free DMEM (Gibco, Gaithersburg, Md., United States of America; High Glucose, Glutamax, no FBS). The media was then replaced with 500 μL of serum-free DMEM containing 100 nM Mitotracker Deep Red (Thermo Fisher Scientific, Waltham, Mass., United States of America) to assist in focusing and processing) and either 0.1% DMSO carrier as a control or Palm B in DMSO and incubated for 30 min at 37° C. and 5% CO2. The media was removed, the cells were washed with 500 μL of Live Cell Imaging Solution (Thermo Fisher Scientific, Waltham, Mass., United States of America), and 500 μL of 1 μM RDP-1 along with the Palm B or DMSO as control in Live Cell Imaging Solution was added to each well. […]

SMILES: CCCCCCCCCCCCCCCC(=O)[O-].[Na+] [palmitate, sodium palmitate]
- increase in intensity of S-depalmitoylase signal as measured by DPP-5 (HEPG2 cells [1]): ~50%
- effect on APT activity as measured by RDP-1 (HEPG2 cells [2]): a decrease in APT activity
